Assay results reported in patent publication US12215085B2 (priority 2019, dated 2025).

Tested on: rats with common carotid artery occlusion-induced vascular dementia
Assay: Water maze test, common carotid artery occlusion-induced vascular dementia rats
Type: in vivo, rat
Conditions: succinate; for orientation angle for reaching the platform / speed for reaching the platform / swimming path length for reaching the platform / time for reaching the platform: x ± s; for Average speed / Number of crossing the platform / Orientation angle / Swimming path length in the platform area/total swimming path length × 100% / Time in the platform area / Time in the platform quadrants: Day 7
Excerpt: A rat blood vessel dementia model was made according to the references [ZHAO Xian-lin, FANG Xiu-bin, LI Dong-pei. Establishment of Vascular Dementia Model in Rats, J Chin Med Univ, 2002, 31 (3): 166-168; WANG Yong-yan, Zhang Bo-li, Editor-in-chief. Modern Chinese Medicine Clinic and Research on Vascular Dementia, People's Medical Publishing House, October 2003, First Version 214]: Chloral hydrate 0.4 g/kg was intraperitoneally injected for anesthetizing rats, and bilateral common carotid arteries were isolated and ligated. The animals were fed for 16 weeks, divided into groups on the last 7 days, and administered. The normal control group and the model group were administrated through the intragastric route with distilled water by 0.5 ml/100 g, the positive control group was administrated through the intragastric route with donepezil hydrochloride by 1.75 mg/kg (equivalent to 3.85 times the clinical daily dosage of 5 mg/70 kg), the low, medium and high-dose groups of Crystal Form A of octahydroaminoacridine succinate were administrated through the intragastric route with Crystal Form A of octahydroaminoacridine succinate by 0.7, 1.4 and 2.8 mg/kg (equivalent to 0.96, 1.92 and 3.85 times the clinical daily dosage of 8 mg/70 kg). The water maze test and the step-down test were carried out after continuous administration for 7 days, and the administration was continued during the test period. The water maze test was continuously performed for 7 days, in the first 6 days, in four different water entry points of quadrants 1, 2, 3 and 4, the time, the swimming path length, the orientation angle and the average speed of the rat reaching the platform were measured, meanwhile, the strategy for reaching the platform adopted by rats was observed, on the 7th day, the platform was removed, the number of rats crossing the platform in 2 minutes, the residence time in the platform area, the residence time in the platform quadrants, the percentage of the swimming path length in the platform area quadrants to the total swimming path length, the average speed and the orientation angle were measured. After the water maze test was finished, the step-down test was performed, and the number of electric shocks (or called as the error number) received by each rat within 5 minutes was recorded as the learning performance. The test was performed again after 24 hours, namely, the memory retention test, and the latent period for stepping-down the platform for the first time and the error number in five minutes were recorded. After the step-down test was finished, the brain was taken quickly for pathological examination, and the pathological changes of the hippocampus and the cortex were observed.

[1] = Day 1, 0.7 mg/kg intragastric, 0.7 mg/kg
[2] = Day 1, 1.4 mg/kg intragastric, 1.4 mg/kg
[3] = Day 1, 2.8 mg/kg intragastric, 2.8 mg/kg
[4] = Day 2, 0.7 mg/kg intragastric, 0.7 mg/kg
[5] = Day 2, 1.4 mg/kg intragastric, 1.4 mg/kg
[6] = Day 2, 2.8 mg/kg intragastric, 2.8 mg/kg
[7] = Day 3, 0.7 mg/kg intragastric, 0.7 mg/kg
[8] = Day 3, 1.4 mg/kg intragastric, 1.4 mg/kg
[9] = Day 3, 2.8 mg/kg intragastric, 2.8 mg/kg
[10] = Day 4, 0.7 mg/kg intragastric, 0.7 mg/kg
[11] = Day 4, 1.4 mg/kg intragastric, 1.4 mg/kg
[12] = Day 4, 2.8 mg/kg intragastric, 2.8 mg/kg
[13] = Day 5, 0.7 mg/kg intragastric, 0.7 mg/kg
[14] = Day 5, 1.4 mg/kg intragastric, 1.4 mg/kg
[15] = Day 5, 2.8 mg/kg intragastric, 2.8 mg/kg
[16] = Day 6, 0.7 mg/kg intragastric, 0.7 mg/kg
[17] = Day 6, 1.4 mg/kg intragastric, 1.4 mg/kg
[18] = Day 6, 2.8 mg/kg intragastric, 2.8 mg/kg
[19] = 0.7 mg/kg intragastric, 0.7 mg/kg
[20] = 1.4 mg/kg intragastric, 1.4 mg/kg
[21] = 2.8 mg/kg intragastric, 2.8 mg/kg

Nc1c2c(nc3c1CCCC3)CCCC2.O=C(O)CCC(=O)O [Crystal Form K, 9-amino-1,2,3,4,5,6,7,8-octahydroacridine succinate]
adopted strategy for reaching the platform (the peripheral type and the random type %) [1]: 93.00%
orientation angle for reaching the platform [1]: 68.46 ± 25.21 °
speed for reaching the platform [1]: 21.26 ± 4.78 cm/s
swimming path length for reaching the platform [1]: 1602.41 ± 583.25 cm
time for reaching the platform [1]: 75.36 ± 14.23 s
adopted strategy for reaching the platform (the peripheral type and the random type %) [2]: 86.50%
orientation angle for reaching the platform [2]: 69.28 ± 21.03 °
speed for reaching the platform [2]: 20.45 ± 9.24 cm/s
swimming path length for reaching the platform [2]: 1502.83 ± 613.11 cm
time for reaching the platform [2]: 73.45 ± 14.49 s
adopted strategy for reaching the platform (the peripheral type and the random type %) [3]: 79.00%
orientation angle for reaching the platform [3]: 70.38 ± 18.48 °
speed for reaching the platform [3]: 19.88 ± 6.76 cm/s
swimming path length for reaching the platform [3]: 1211.27 ± 259.82 cm
time for reaching the platform [3]: 70.25 ± 9.82 s
adopted strategy for reaching the platform (the peripheral type and the random type %) [4]: 83.50%
orientation angle for reaching the platform [4]: 60.47 ± 24.23 °
speed for reaching the platform [4]: 21.66 ± 8.76 cm/s
swimming path length for reaching the platform [4]: 1242.31 ± 438.47 cm
time for reaching the platform [4]: 57.33 ± 17.88 s
adopted strategy for reaching the platform (the peripheral type and the random type %) [5]: 80.00%
orientation angle for reaching the platform [5]: 58.29 ± 17.83 °
speed for reaching the platform [5]: 24.28 ± 9.65 cm/s
swimming path length for reaching the platform [5]: 1219.38 ± 892.43 cm
time for reaching the platform [5]: 50.21 ± 20.11 s
adopted strategy for reaching the platform (the peripheral type and the random type %) [6]: 76.50%
orientation angle for reaching the platform [6]: 57.88 ± 17.43 °
speed for reaching the platform [6]: 28.24 ± 4.72 cm/s
swimming path length for reaching the platform [6]: 1377.38 ± 328.92 cm
time for reaching the platform [6]: 47.36 ± 14.52 s
adopted strategy for reaching the platform (the peripheral type and the random type %) [7]: 70.50%
orientation angle for reaching the platform [7]: 59.03 ± 16.89 °
speed for reaching the platform [7]: 20.12 ± 8.22 cm/s
swimming path length for reaching the platform [7]: 749.48 ± 427.45 cm
time for reaching the platform [7]: 45.78 ± 10.33 s
adopted strategy for reaching the platform (the peripheral type and the random type %) [8]: 71.00%
orientation angle for reaching the platform [8]: 58.22 ± 10.34 °
speed for reaching the platform [8]: 21.34 ± 6.99 cm/s
swimming path length for reaching the platform [8]: 763.45 ± 414.55 cm
time for reaching the platform [8]: 44.29 ± 20.13 s
adopted strategy for reaching the platform (the peripheral type and the random type %) [9]: 65.50%
orientation angle for reaching the platform [9]: 55.11 ± 16.99 °
speed for reaching the platform [9]: 20.10 ± 6.82 cm/s
swimming path length for reaching the platform [9]: 644.62 ± 582.37 cm
time for reaching the platform [9]: 40.67 ± 13.41 s
adopted strategy for reaching the platform (the peripheral type and the random type %) [10]: 75.50%
orientation angle for reaching the platform [10]: 55.36 ± 19.61 °
speed for reaching the platform [10]: 21.70 ± 10.21 cm/s
swimming path length for reaching the platform [10]: 788.25 ± 300.86 cm
time for reaching the platform [10]: 40.55 ± 16.73 s
adopted strategy for reaching the platform (the peripheral type and the random type %) [11]: 68.00%
orientation angle for reaching the platform [11]: 53.49 ± 14.67 °
speed for reaching the platform [11]: 20.28 ± 6.02 cm/s
swimming path length for reaching the platform [11]: 752.34 ± 467.22 cm
time for reaching the platform [11]: 39.57 ± 18.69 s
adopted strategy for reaching the platform (the peripheral type and the random type %) [12]: 62.50%
orientation angle for reaching the platform [12]: 50.35 ± 15.5 °
speed for reaching the platform [12]: 21.00 ± 5.91 cm/s
swimming path length for reaching the platform [12]: 703.47 ± 231.68 cm
time for reaching the platform [12]: 37.88 ± 17.67 s
adopted strategy for reaching the platform (the peripheral type and the random type %) [13]: 72.50%
orientation angle for reaching the platform [13]: 53.56 ± 14.56 °
speed for reaching the platform [13]: 21.42 ± 7.22 cm/s
swimming path length for reaching the platform [13]: 664.56 ± 562.88 cm
time for reaching the platform [13]: 31.42 ± 17.35 s
adopted strategy for reaching the platform (the peripheral type and the random type %) [14]: 62.00%
orientation angle for reaching the platform [14]: 52.76 ± 19.40 °
speed for reaching the platform [14]: 21.26 ± 8.46 cm/s
swimming path length for reaching the platform [14]: 689.43 ± 267.98 cm
time for reaching the platform [14]: 34.62 ± 12.48 s
adopted strategy for reaching the platform (the peripheral type and the random type %) [15]: 58.50%
orientation angle for reaching the platform [15]: 53.49 ± 23.42 °
speed for reaching the platform [15]: 22.93 ± 6.31 cm/s
swimming path length for reaching the platform [15]: 642.45 ± 386.45 cm
time for reaching the platform [15]: 28.41 ± 8.73 s
adopted strategy for reaching the platform (the peripheral type and the random type %) [16]: 70.00%
orientation angle for reaching the platform [16]: 50.39 ± 22.30 °
speed for reaching the platform [16]: 19.52 ± 14.27 cm/s
swimming path length for reaching the platform [16]: 523.46 ± 237.12 cm
time for reaching the platform [16]: 32.45 ± 21.25 s
adopted strategy for reaching the platform (the peripheral type and the random type %) [17]: 66.50%
orientation angle for reaching the platform [17]: 50.34 ± 20.04 °
speed for reaching the platform [17]: 22.54 ± 9.36 cm/s
swimming path length for reaching the platform [17]: 531.55 ± 169.37 cm
time for reaching the platform [17]: 28.21 ± 15.63 s
adopted strategy for reaching the platform (the peripheral type and the random type %) [18]: 54.00%
orientation angle for reaching the platform [18]: 46.37 ± 26.8 °
speed for reaching the platform [18]: 21.32 ± 7.46 cm/s
swimming path length for reaching the platform [18]: 502.78 ± 482.65 cm
time for reaching the platform [18]: 29.10 ± 17.83 s
Average speed [19]: 23.62 ± 8.38 cm/s
Number of crossing the platform [19]: 5.67 ± 3.45
Orientation angle [19]: 27.88 ± 6.57 °
Swimming path length in the platform area/total swimming path length × 100% [19]: 26.88 ± 7.36%
Time in the platform area [19]: 2.87 ± 2.14 s
Time in the platform quadrants [19]: 35.61 ± 10.91 s
Average speed [20]: 24.69 ± 5.76 cm/s
Number of crossing the platform [20]: 7.25 ± 2.45
Orientation angle [20]: 24.69 ± 8.21 °
Swimming path length in the platform area/total swimming path length × 100% [20]: 28.74 ± 8.90%
Time in the platform area [20]: 2.18 ± 2.34 s
Time in the platform quadrants [20]: 37.88 ± 12.37 s
Average speed [21]: 25.45 ± 6.98 cm/s
Number of crossing the platform [21]: 7.49 ± 3.51
Orientation angle [21]: 23.57 ± 4.76 °
Swimming path length in the platform area/total swimming path length × 100% [21]: 27.39 ± 10.42%
Time in the platform area [21]: 2.56 ± 3.27 s
Time in the platform quadrants [21]: 34.52 ± 15.82 s
